Results reported in US11504330B2, “Formulation comprising particles containing a water-swellable or water-soluble polymeric component and a lipid component” (PERORA GMBH, priority 2014, dated 2022).

Assay: Tryptophan release / dissolution in fasted-state simulated gastric fluid (FaSSGF)
Format: physicochemical
Conditions: 30 mg powder in 22 mL FaSSGF, 37° C., agitated
Protocol: FaSSGF was prepared by dissolving 1 g of NaCl (Sigma-Aldrich) in 450 mL of water, adding 30 mg of SIF powder (biorelvant.com), adjusting the pH to 2.0 with 0.1 N HCl (Sigma-Aldrich) and adding water to a final volume of 500 mL.
30 mg of tryptophan powder were suspended in 22 mL FaSSGF at 37° C. and agitated (shaker ST5 from CAT, Germany). Aliquots were removed at time intervals of 5 min, and tryptophan concentration was quantified using absorption measurement at a wavelength of 280 nm in a NanoDrop® 2000 device (Thermo Scientific, USA).

For `N[C@@H](Cc1c[nH]c2ccccc12)C(=O)O` [Tryptophan, L-Tryptophan], the “time after which quantitatively dissolved” value was 10 min.
